# Test results published in PubChem BioAssay AID248 (DTP/NCI, 2004).
# Several values for one entry are separate records, joined by “and”; a condition that tells them apart may be missing. Identical values can stand only once. Inconclusive results and toxic doses are left out.
# Test system: L1210 leukemia ip in BDF1 mice, survival T/C
# Experiment: NCI In Vivo Anticancer Drug Screen. Data for tumor model L1210 Leukemia (intraperitoneal) in B6D2F1 (BDF1) mice
# Settings: higher = longer survival
# Procedure, shortened: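 Transplanted-tumor mice were given test agent; controls received vehicle only. Survival readings from the two groups were divided (treated over control).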
# [1] = endpoint: mean survival time, dose: 100.0 mg/kg/injection, schedule: Q04DX003 (ip), vehicle: saline with Tween-80
# [2] = endpoint: mean survival time, dose: 200.0 mg/kg/injection, schedule: Q04DX003 (ip), vehicle: saline with Tween-80
# [3] = endpoint: mean survival time, dose: 100.0 mg/kg/injection, schedule: Q01DX001 (ip), vehicle: saline
# [4] = endpoint: mean survival time, dose: 200.0 mg/kg/injection, schedule: Q01DX001 (ip), vehicle: saline
# [5] = endpoint: mean survival time, dose: 400.0 mg/kg/injection, schedule: Q01DX001 (ip), vehicle: saline
smiles,measurement,setting,value
Cc1ccc(N=NN(C)C)cc1,T/C,"endpoint: mean survival time, dose: 12.5 mg/kg/injection, schedule: Q01DX009 (ip), vehicle: saline with Tween-80",97 % of control
same,T/C,"endpoint: mean survival time, dose: 25.0 mg/kg/injection, schedule: Q01DX009 (ip), vehicle: saline with Tween-80",103 % of control
same,T/C,"endpoint: mean survival time, dose: 25.0 mg/kg/injection, schedule: Q04DX003 (ip), vehicle: saline with Tween-80",105 % of control
same,T/C,"endpoint: mean survival time, dose: 26.6 mg/kg/injection, schedule: Q01DX Z (ip), vehicle: methylcellulose (MC)",104 % of control
same,T/C,"endpoint: mean survival time, dose: 31.25 mg/kg/injection, schedule: Q01DX001 (ip), vehicle: saline with Tween-80",108 % of control
same,T/C,"endpoint: mean survival time, dose: 40.0 mg/kg/injection, schedule: Q01DX Z (ip), vehicle: methylcellulose (MC)",118 % of control
same,T/C,"endpoint: mean survival time, dose: 50.0 mg/kg/injection, schedule: Q01DX009 (ip), vehicle: saline with Tween-80",103 % of control
same,T/C,"endpoint: mean survival time, dose: 50.0 mg/kg/injection, schedule: Q04DX003 (ip), vehicle: saline with Tween-80",103 % of control
same,T/C,"endpoint: mean survival time, dose: 62.5 mg/kg/injection, schedule: Q01DX001 (ip), vehicle: saline with Tween-80",110 % of control
same,T/C,"endpoint: mean survival time, dose: 90.0 mg/kg/injection, schedule: Q01DX Z (ip), vehicle: methylcellulose (MC)",165 % of control
same,T/C,"endpoint: mean survival time, dose: 100.0 mg/kg/injection, schedule: Q01DX009 (ip), vehicle: saline with Tween-80",104 % of control
same,T/C,[1],110 % of control
same,T/C,"endpoint: mean survival time, dose: 180.0 mg/kg/injection, schedule: Q01DX Z (ip), vehicle: carboxymethylcellulose (CMC)",102 % of control
same,T/C,[2],109 % of control
Cc1ccc(S(=O)(=O)N2CCc3ccccc3C(=O)C2)cc1,T/C,[3],97 % of control
same,T/C,[4],94 % of control
same,T/C,[5],94 % of control
O=C1c2cccc(S(=O)(=O)O)c2C(=O)c2cccc(S(=O)(=O)O)c21,T/C,"endpoint: mean survival time, dose: 50.0 mg/kg/injection, schedule: Q01DX001 (ip), vehicle: saline",102 % of control
same,T/C,[3],109 % of control
same,T/C,[4],111 % of control
same,T/C,[5],109 % of control
Cn1cnc([N+](=O)[O-])c1Sc1nc(N)nc2nc[nH]c12,T/C,"endpoint: mean survival time, dose: 0.16 mg/kg/injection, schedule: Q#A X030 (oral), vehicle: saline",110 % of control
same,T/C,"endpoint: mean survival time, dose: 0.31 mg/kg/injection, schedule: Q#A X030 (oral), vehicle: saline",106 % of control
same,T/C,"endpoint: mean survival time, dose: 0.62 mg/kg/injection, schedule: Q#A X030 (oral), vehicle: saline",108 % of control
same,T/C,"endpoint: mean survival time, dose: 0.9 mg/kg/injection, schedule: Q03DX005 (oral), vehicle: saline",101 % of control
same,T/C,"endpoint: mean survival time, dose: 1.2 mg/kg/injection, schedule: Q01DX006 (iv), vehicle: saline",105 % of control
same,T/C,"endpoint: mean survival time, dose: 1.2 mg/kg/injection, schedule: Q01DX Z (im), vehicle: saline",105 % of control
same,T/C,"endpoint: mean survival time, dose: 1.2 mg/kg/injection, schedule: Q01DX Z (ip), vehicle: saline",168 % of control
same,T/C,"endpoint: mean survival time, dose: 1.2 mg/kg/injection, schedule: Q01DX Z (sc), vehicle: saline",166 % of control
same,T/C,"endpoint: mean survival time, dose: 1.25 mg/kg/injection, schedule: Q01DX010 (ip), vehicle: saline",112 % of control and 120 % of control
same,T/C,"endpoint: mean survival time, dose: 1.25 mg/kg/injection, schedule: Q#A X030 (oral), vehicle: saline",113 % of control
same,T/C,"endpoint: mean survival time, dose: 1.6 mg/kg/injection, schedule: Q01DX001 (oral), vehicle: saline",110 % of control
same,T/C,"endpoint: mean survival time, dose: 1.9 mg/kg/injection, schedule: Q03DX005 (oral), vehicle: saline",106 % of control
same,T/C,"endpoint: mean survival time, dose: 2.1 mg/kg/injection, schedule: Q07DX003 (oral), vehicle: saline",102 % of control
same,T/C,"endpoint: mean survival time, dose: 2.5 mg/kg/injection, schedule: Q01DX006 (iv), vehicle: saline",109 % of control
same,T/C,"endpoint: mean survival time, dose: 2.5 mg/kg/injection, schedule: Q01DX009 (ip), vehicle: saline",151 % of control and 159 % of control
same,T/C,"endpoint: mean survival time, dose: 2.5 mg/kg/injection, schedule: Q01DX010 (ip), vehicle: saline",154 % of control and 155 % of control
same,T/C,"endpoint: mean survival time, dose: 2.5 mg/kg/injection, schedule: Q01DX Z (im), vehicle: saline",100 % of control
same,T/C,"endpoint: mean survival time, dose: 2.5 mg/kg/injection, schedule: Q01DX Z (ip), vehicle: saline",150 % of control
same,T/C,"endpoint: mean survival time, dose: 3.13 mg/kg/injection, schedule: Q01DX001 (oral), vehicle: saline",104 % of control and 108 % of control
same,T/C,"endpoint: mean survival time, dose: 3.8 mg/kg/injection, schedule: Q03DX005 (oral), vehicle: saline",104 % of control
same,T/C,"endpoint: mean survival time, dose: 4.3 mg/kg/injection, schedule: Q07DX003 (oral), vehicle: saline",106 % of control
same,T/C,"endpoint: mean survival time, dose: 5.0 mg/kg/injection, schedule: Q01DX009 (ip), vehicle: saline",156 % of control
same,T/C,"endpoint: mean survival time, dose: 5.0 mg/kg/injection, schedule: Q01DX010 (ip), vehicle: saline",161 % of control and 163 % of control
same,T/C,"endpoint: mean survival time, dose: 5.0 mg/kg/injection, schedule: Q01DX Z (ip), vehicle: saline",166 % of control
same,T/C,"endpoint: mean survival time, dose: 5.0 mg/kg/injection, schedule: Q01DX Z (oral), vehicle: saline",116 % of control
same,T/C,"endpoint: mean survival time, dose: 5.0 mg/kg/injection, schedule: Q01DX Z (sc), vehicle: saline",209 % of control
same,T/C,"endpoint: mean survival time, dose: 6.0 mg/kg/injection, schedule: Q01DX001 (ip), vehicle: saline",109 % of control and 113 % of control
same,T/C,"endpoint: mean survival time, dose: 6.25 mg/kg/injection, schedule: Q01DX001 (oral), vehicle: saline",102 % of control
same,T/C,"endpoint: mean survival time, dose: 7.5 mg/kg/injection, schedule: Q03DX005 (oral), vehicle: saline",112 % of control
same,T/C,"endpoint: mean survival time, dose: 8.7 mg/kg/injection, schedule: Q07DX003 (oral), vehicle: saline",113 % of control
same,T/C,"endpoint: mean survival time, dose: 10.0 mg/kg/injection, schedule: Q01DX010 (ip), vehicle: saline",152 % of control
same,T/C,"endpoint: mean survival time, dose: 10.0 mg/kg/injection, schedule: Q01DX Z (oral), vehicle: saline",123 % of control
same,T/C,"endpoint: mean survival time, dose: 12.5 mg/kg/injection, schedule: Q01DX001 (oral), vehicle: saline",110 % of control
same,T/C,"endpoint: mean survival time, dose: 17.5 mg/kg/injection, schedule: Q07DX003 (oral), vehicle: saline",122 % of control
same,T/C,"endpoint: mean survival time, dose: 20.0 mg/kg/injection, schedule: Q01DX006 (iv), vehicle: saline",153 % of control
same,T/C,"endpoint: mean survival time, dose: 20.0 mg/kg/injection, schedule: Q01DX009 (ip), vehicle: saline",114 % of control and 120 % of control
same,T/C,"endpoint: mean survival time, dose: 22.0 mg/kg/injection, schedule: Q01DX001 (ip), vehicle: carboxymethylcellulose (CMC)",166 % of control
same,T/C,"endpoint: mean survival time, dose: 25.0 mg/kg/injection, schedule: Q01DX001 (ip), vehicle: saline",116 % of control and 239 % of control
same,T/C,"endpoint: mean survival time, dose: 35.0 mg/kg/injection, schedule: Q01DX001 (ip), vehicle: carboxymethylcellulose (CMC)",174 % of control
same,T/C,"endpoint: mean survival time, dose: 40.0 mg/kg/injection, schedule: Q01DX Z (oral), vehicle: saline",174 % of control
same,T/C,"endpoint: mean survival time, dose: 52.0 mg/kg/injection, schedule: Q01DX001 (ip), vehicle: carboxymethylcellulose (CMC)",180 % of control
same,T/C,"endpoint: mean survival time, dose: 78.0 mg/kg/injection, schedule: Q01DX001 (ip), vehicle: carboxymethylcellulose (CMC)",196 % of control
same,T/C,"endpoint: mean survival time, dose: 80.0 mg/kg/injection, schedule: Q01DX Z (oral), vehicle: saline",163 % of control
same,T/C,[3],200 % of control and 254 % of control
same,T/C,"endpoint: mean survival time, dose: 160.0 mg/kg/injection, schedule: Q01DX Z (im), vehicle: saline",96 % of control
same,T/C,"endpoint: mean survival time, dose: 160.0 mg/kg/injection, schedule: Q01DX Z (oral), vehicle: saline",111 % of control
same,T/C,"endpoint: mean survival time, dose: 320.0 mg/kg/injection, schedule: Q01DX Z (oral), vehicle: saline",91 % of control
same,T/C,"endpoint: mean survival time, dose: 640.0 mg/kg/injection, schedule: Q01DX Z (oral), vehicle: saline",86 % of control
same,T/C,"endpoint: mean survival time, dose: 960.0 mg/kg/injection, schedule: Q03DX005 (oral), vehicle: saline",106 % of control
same,T/C,"endpoint: mean survival time, dose: 1920.0 mg/kg/injection, schedule: Q03DX005 (oral), vehicle: saline",100 % of control
same,T/C,"endpoint: median survival time, dose: 2.5 mg/kg/injection, schedule: Q01DX009 (ip), vehicle: saline",150 % of control
same,T/C,"endpoint: median survival time, dose: 10.0 mg/kg/injection, schedule: Q01DX009 (ip), vehicle: saline",115 % of control
same,T/C,"endpoint: median survival time, dose: 20.0 mg/kg/injection, schedule: Q01DX009 (ip), vehicle: saline",100 % of control and 118 % of control
CCCCCCCCCCCc1n(Cc2ccccc2)cc[n+]1C,T/C,"endpoint: mean survival time, dose: 0.5 mg/kg/injection, schedule: Q01DX001 (ip), vehicle: saline",101 % of control
same,T/C,"endpoint: mean survival time, dose: 0.5 mg/kg/injection, schedule: Q01DX009 (ip), vehicle: acetone",111 % of control
same,T/C,"endpoint: mean survival time, dose: 1.0 mg/kg/injection, schedule: Q01DX001 (ip), vehicle: saline",95 % of control
same,T/C,"endpoint: mean survival time, dose: 1.0 mg/kg/injection, schedule: Q01DX009 (ip), vehicle: acetone",118 % of control
same,T/C,"endpoint: mean survival time, dose: 2.0 mg/kg/injection, schedule: Q01DX001 (ip), vehicle: saline",101 % of control
same,T/C,"endpoint: mean survival time, dose: 2.0 mg/kg/injection, schedule: Q04DX003 (ip), vehicle: saline",95 % of control
same,T/C,"endpoint: mean survival time, dose: 8.0 mg/kg/injection, schedule: Q01DX001 (ip), vehicle: saline",103 % of control
C=C(CSCC(=O)O)c1ccccc1,T/C,"endpoint: mean survival time, dose: 100.0 mg/kg/injection, schedule: Q04DX002 (ip), vehicle: saline",105 % of control
same,T/C,"endpoint: mean survival time, dose: 200.0 mg/kg/injection, schedule: Q04DX002 (ip), vehicle: saline",97 % of control
same,T/C,"endpoint: mean survival time, dose: 400.0 mg/kg/injection, schedule: Q04DX002 (ip), vehicle: saline",97 % of control
Cc1c(C/C(=N/O)C(=O)O)[nH]c(=S)[nH]c1=O,T/C,[1],103 % of control
same,T/C,[2],96 % of control
same,T/C,"endpoint: mean survival time, dose: 400.0 mg/kg/injection, schedule: Q04DX003 (ip), vehicle: saline with Tween-80",102 % of control
